Key:
STAT5 = STAT5 phosphorylation in UT7 cells by Western immunoblot; assay type: cell-based
Procedure: FIGS. 2A and 2B show potentiation of STAT 5 activation by lenalidomide. […] Whole cell lysates were assayed for actin (Sigma), STAT5 and phospho-STAT5 (Cell Signaling) by Western immunoblot as previously described. […] K562 leukemia cells served as a positive control.
To determine if lenalidomide modulates EPO-R signaling to enhance cytokine induced clonogenic response, STAT5 phosphorylation and its nuclear trans-activation was evaluated after treatment with either lenalidomide or EPO alone, or the combination [FIG. 2A].

[1] = system: Jak2 and STAT5 phosphorylation in UT7 cells; assay: Jak2 and STAT5 phosphorylation in UT7 cells with JAK or Src kinase inhibitors (Western); assay type: cell-based
Procedure: 10×10^7 UT7 cells were serum starved then treated with SKI 606 or AG490 for 30 minutes, CC5013 for 2 hours, and stimulated with EPO (1 U/ml) for 10 minutes at 37° C. Cells were lysed and […] run on a 4-15% Gradient gel (Bio-rad). Antibodies included p-STAT5 (Upstate, 1:1000 in 5% TBS/milk), total STAT5 (Cell Signaling, 1:10000 in 5% TBS/milk), and p-Jak2 (Santa Cruz, 1:500 in 5% TBS/milk). Blots were developed with an ECL detection kit (Amersham).
To further evaluate the mechanism by which lenalidomide enhances the EPO-R signal, STAT5 activation was assessed in response to EPO+lenalidomide treatment using selective pharmacologic inhibitors of JAK (AG490) or Src ([…]) kinases [FIG. 4].

## Nc1cccc2c1CN(C1CCC(=O)NC1=O)C2=O (stereo not shown) [lenalidomide, 3-(4-amino-1-oxo-1,3-dihydro-2H-isoindol-2-yl)piperidine-2,6-dione]
STAT5; Western immunoblot, lenalidomide followed by EPO
  EPO-induced phosphorylation of STAT5: increased
STAT5; lenalidomide alone
  STAT5 phosphorylation: no effect
[1]; lenalidomide + EPO (Lane 7)
  EPO-induced Jak2-phosphorylation: further augmented
[1]; lenalidomide alone (Lane 2)
  Jak2-phosphorylation: increased
